Source: patent US20160066610A1, “METHODS FOR ENHANCING AGED MUSCLE REGENERATION” (ABBOTT LABORATORIES, priority 2013, published 2016)
Where “and” joins values, the source holds several entries; their conditions need not be identical. Identical values can stand only once.

System: FGF2
Experiment: Intramuscular FGF2 in gastrocnemius muscle lysates after 8 weeks of dietary supplementation, aged SD rat model of sarcopenia
Assay type: in vivo, Sprague Dawley (SD) rat
Conditions: for level of intramuscular FGF2, individual rat / level of intramuscular FGF2, AVE: aged (21 month) SD rats, gastrocnemius lysate, end of 8 week study, EGCg 50 mg/kg bw; for level of intramuscular FGF2, individual rat: Ca-HMB 340 mg/kg bw in AIN-93M diet, one value per rat (Rat 1-10); for % Change from Control (intramuscular FGF2): group average vs control diet AIN-93M, 8 weeks; for level of intramuscular FGF2, AVE: group average, Ca-HMB 340 mg/kg bw
Experimental: Example 3 illustrates the effect of 8 weeks of dietary supplementation in the aged Sprague Dawley (SD) rat model of sarcopenia. More particularly, the level of intramuscular FGF2 in gastrocnemius muscle lysates of aged SD rats (21 month) were analyzed and compared. The four experimental groups included:
1) control group: fed AIN-93M (purified diet);
2) EGCg group: fed AIN-93M+EGCg (Teavigo®-DSM-50 mg/kg bw);
3) HMB group: fed AIN-93M+Ca-HMB (340 mg/kg bw); and
4) HMB+EGCg group: fed AIN-93M+Ca-HMB (340 mg/kg bw)+EGCg (Teavigo®-50 mg/kg bw).
A total of 40 rats were divided equally among the four groups. Whole gastrocnemius muscles were collected from euthanized rats and flash frozen in liquid nitrogen. Approximately 200 mg tissue was obtained from each muscle by mechanical biopsy punch. Specimens were then pulverized on liquid nitrogen and transferred to 15 mL conical tube and weighed. A mild, detergent free lysis buffer (9×) was added to the dried specimen in the conical tube. 9× Lysis buffer (50 mM Tris.HCl, 2 mM EDTA, pH 7.4/NaOH) was supplemented with a mammalian protease inhibitor cocktail (Sigma) at a 1:200 dilution and stored on ice. The specimens were then vortexed again for 10 sec. and transferred to a 1.5 mL tube. Lysates were centrifuged/clarified for 5 min. at 11000 rpm at 4° C. in a standard table-top Eppendorf centrifuge. Supernatant (1 mL) was aliquotted to a 2 mL cryotube and stored at −80° C. Lystates were analyzed by Myriad Rules Based Medicine (Austin, Tex.) on the RodentMAP® v. 2.0 Antigens and Rat METABOLIC® multi-analyte profiling platforms.

| Molecule | level of intramuscular FGF2, individual rat | % Change from Control (intramuscular FGF2) | level of intramuscular FGF2, AVE |
| --- | --- | --- | --- |
| CC(C)(O)CC(=O)O [HMB, beta-hydroxy-beta-methylbutyrate] | 15.0 ng/mL of lysate and 21.0 ng/mL of lysate and 6.1 ng/mL of lysate and 3.1 ng/mL of lysate and 4.3 ng/mL of lysate and 11.0 ng/mL of lysate and 4.0 ng/mL of lysate and 4.9 ng/mL of lysate | 18.8% | 8.68 ng/mL of lysate |
| epigallocatechin-3-gallate [EGCg] | 3.7 ng/mL of lysate (2×) and 16.0 ng/mL of lysate and 15.0 ng/mL of lysate and 9.9 ng/mL of lysate and 5.5 ng/mL of lysate and 3.1 ng/mL of lysate (3×) and 7.8 ng/mL of lysate | −2.9% | 7.09 ng/mL of lysate |
